These results are taken from patent US9346809B2 (LEO PHARMA A/S, priority 2009, dated 2016).

For orientation: EC50 means the concentration at which the effect is half-maximal.

The structures appear in SMILES notation. Read-outs that look alike come from different tables or passages of the source.

Assay type in all cases: biochemical
Test [1] deals with T1, JAK1 (aa 850-1154, catalytic domain, GST-tag) (Homo sapiens, UniProt P23458).
T1 construct: JAK1 (aa 850-1154) and TYK2 (aa 871-1187) are expressed with an N-terminally fused GST-tag; GST (N); purchased Carna Biosciences, Inc; host or cells: baculovirus expression system
Put plainly: JAK kinase assay (HTRF, phosphorylation of TK substrate-biotin), JAK1. As to conditions: ATP at Km (7 μM). The procedure, abridged:
(§1)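 Baculovirus-expressed catalytic domains phosphorylated 1 μM TK substrate-biotin in 50 mM Hepes pH 7.0 with ATP at Km (JAK1 7 μM, JAK2 4 μM, JAK3 2 μM, TYK2 13 μM) for 20-30 min at RT. EDTA/KF stop, streptavidin-XL665 plus cryptate antibody overnight; HTRF signal gave EC50.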
(Time-resolved FRET reads energy transfer from a long-lived donor to a nearby acceptor.)

Test [2] deals with T2, JAK2 (catalytic domain, His-tag) (Homo sapiens, UniProt O60674).
T2 construct: All four purified enzymes contain only the catalytic domain; His (N); purchased Carna Biosciences, Inc; host or cells: baculovirus expression system
Put plainly: JAK kinase assay (HTRF, phosphorylation of TK substrate-biotin), JAK2. As to conditions: ATP at Km (4 μM). The procedure, abridged: as §1

Test [3] concerns the target T3, JAK3 (catalytic domain, His-tag) (Homo sapiens, UniProt P52333).
T3 construct: All four purified enzymes contain only the catalytic domain; His (N); purchased Carna Biosciences, Inc; host or cells: baculovirus expression system
Put plainly: JAK kinase assay (HTRF, phosphorylation of TK substrate-biotin), JAK3. Conditions: ATP at Km (2 μM). The procedure, abridged:
as §1

Test [4] deals with T4, TYK2 (aa 871-1187, catalytic domain, GST-tag) (Homo sapiens, UniProt P29597).
T4 construct: JAK1 (aa 850-1154) and TYK2 (aa 871-1187) are expressed with an N-terminally fused GST-tag; GST (N); purchased Carna Biosciences, Inc; host or cells: baculovirus expression system
T4 sequence (P29597 871-1187): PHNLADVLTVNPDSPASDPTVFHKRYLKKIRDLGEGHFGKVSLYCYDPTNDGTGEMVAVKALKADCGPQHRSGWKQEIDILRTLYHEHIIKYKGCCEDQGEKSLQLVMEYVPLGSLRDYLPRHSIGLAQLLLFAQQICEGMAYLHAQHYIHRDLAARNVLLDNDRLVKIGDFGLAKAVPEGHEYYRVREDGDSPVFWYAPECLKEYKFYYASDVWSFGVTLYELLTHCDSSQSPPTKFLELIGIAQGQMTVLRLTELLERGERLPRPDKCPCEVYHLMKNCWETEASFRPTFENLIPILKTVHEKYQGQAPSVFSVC
Description: JAK kinase assay (HTRF, phosphorylation of TK substrate-biotin), TYK2. As to conditions: ATP at Km (13 μM). The procedure, abridged: as §1

The mark [5] stands for this setting: read-out: JAK1 kinase inhibitory activity (EC50 indicator).
The mark [6] stands for this setting: read-out: JAK2 kinase inhibitory activity (EC50 indicator).
[7] abbreviates: read-out: JAK3 kinase inhibitory activity (EC50 indicator).
Where [8] appears, read: read-out: TYK2 kinase inhibitory activity (EC50 indicator).
[9] abbreviates: HTRF assay, read-out: JAK1 kinase inhibitory activity (EC50 indicator).
[10] abbreviates: HTRF assay, read-out: JAK2 kinase inhibitory activity (EC50 indicator).
[11] abbreviates: HTRF assay, read-out: JAK3 kinase inhibitory activity (EC50 indicator).
Where [12] appears, read: HTRF assay, read-out: TYK2 kinase inhibitory activity (EC50 indicator).
The mark [13] stands for this setting: HTRF assay, read-out: JAK1 kinase inhibitory activity (EC50).
The mark [14] stands for this setting: HTRF assay, read-out: JAK2 kinase inhibitory activity (EC50).
The mark [15] stands for this setting: HTRF assay, read-out: JAK3 kinase inhibitory activity (EC50).
Where [16] appears, read: HTRF assay, read-out: TYK2 kinase inhibitory activity (EC50).

T1 sequence (P23458 850-1154): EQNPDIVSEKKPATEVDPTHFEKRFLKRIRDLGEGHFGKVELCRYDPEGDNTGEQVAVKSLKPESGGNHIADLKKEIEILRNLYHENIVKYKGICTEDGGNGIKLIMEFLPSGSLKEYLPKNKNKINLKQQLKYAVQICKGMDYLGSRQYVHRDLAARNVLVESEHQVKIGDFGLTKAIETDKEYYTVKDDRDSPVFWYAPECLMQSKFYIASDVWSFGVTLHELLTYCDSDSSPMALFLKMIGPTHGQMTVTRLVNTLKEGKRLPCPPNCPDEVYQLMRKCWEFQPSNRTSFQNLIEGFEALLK
T3 sequence (P52333 822-1111 limits assumed): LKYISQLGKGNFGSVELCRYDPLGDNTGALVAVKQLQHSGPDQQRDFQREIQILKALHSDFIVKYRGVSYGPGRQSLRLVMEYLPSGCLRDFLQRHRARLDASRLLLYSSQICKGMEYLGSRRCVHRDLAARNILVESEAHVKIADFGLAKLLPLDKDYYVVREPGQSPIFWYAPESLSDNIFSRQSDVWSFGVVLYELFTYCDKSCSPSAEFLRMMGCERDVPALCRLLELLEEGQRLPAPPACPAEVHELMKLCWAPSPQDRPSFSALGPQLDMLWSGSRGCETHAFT
T2 sequence (O60674 849-1124 limits assumed): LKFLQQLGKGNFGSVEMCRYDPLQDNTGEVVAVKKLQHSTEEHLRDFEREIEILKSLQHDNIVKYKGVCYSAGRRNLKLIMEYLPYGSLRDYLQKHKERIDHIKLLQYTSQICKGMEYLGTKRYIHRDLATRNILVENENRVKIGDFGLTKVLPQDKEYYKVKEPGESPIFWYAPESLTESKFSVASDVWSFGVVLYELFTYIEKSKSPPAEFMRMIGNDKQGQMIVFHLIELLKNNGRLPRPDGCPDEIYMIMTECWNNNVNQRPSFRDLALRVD

Take `NS(=O)(=O)CCCC(=O)N1CCN(c2ncnc3[nH]ccc23)CC12CC2` [Example 143, 4-Oxo-4-[7-(7H-pyrrolo[2,3-d]pyrimidin-4-yl)-4,7-diaza-spiro[2.5]oct-4-yl]-butane-1-sulfonic acid amide]: the EC50 in test [1] (setting [5]) was < 100 nM; in test [2] (setting [6]), < 100 nM; in test [3] (setting [7]), < 100 nM; in test [4] (setting [8]), > 500 nM.
Consider `Cc1ccsc1C(=O)N1CCN(c2ccnc3[nH]ccc23)CC12CC2` [Example 228, (3-Methyl-thiophen-2-yl)-[7-(1H-pyrrolo[2,3-b]pyridin-4-yl)-4,7-diaza-spiro[2.5]oct-4-yl]-methanone], for which the EC50 in test [1] (setting [9]) is 100 to 500 nM; in test [2] (setting [10]), < 100 nM; in test [3] (setting [11]), > 500 nM; in test [4] (setting [12]), > 500 nM.
With `COc1cnc2[nH]ccc2c1N1CCN(C(=O)c2cc3cc(C#N)ccc3[nH]2)C2(CC2)C1` [Example 291, 2-[7-(5-Methoxy-1H-pyrrolo[2,3-b]pyridin-4-yl)-4,7-diaza-spiro[2.5]octane-4-carbonyl]-1H-indole-5-carbonitrile], the EC50 is > 500 nM in test [1] (setting [9]), > 500 nM in test [2] (setting [10]), 100 to 500 nM in test [3] (setting [11]) and > 500 nM in test [4] (setting [12]).
As to `N#Cc1ccc(C(=O)N2CCN(c3ncnc4[nH]ccc34)CC23CC3)c(F)c1` [Example 92, 3-Fluoro-4-[7-(7H-pyrrolo[2,3-d]pyrimidin-4-yl)-4,7-diaza-spiro[2.5]octane-4-carbonyl]-benzonitrile], the EC50 in test [1] (setting [5]) is < 100 nM; in test [2] (setting [6]), < 100 nM; in test [3] (setting [7]), 100 to 500 nM; in test [4] (setting [8]), 100 to 500 nM.
As for `Cc1cncc(C(=O)N2[C@@H]3CC[C@H]2CN(c2ncnc4[nH]ccc24)C3)n1` [Example 73, (6-Methyl-pyrazin-2-yl)-[3-(7H-pyrrolo[2,3-d]pyrimidin-4-yl)-3,8-diaza-bicyclo[3.2.1]oct-8-yl]-methanone], the EC50 in test [1] (setting [5]) is < 100 nM; in test [2] (setting [6]), 100 to 500 nM; in test [3] (setting [7]) it was 100 to 500 nM; in test [4] (setting [8]), > 500 nM.
As to `Cc1c[nH]c2ncnc(N3CCN(C(=O)Cc4ccc(C(F)(F)F)cc4)C4(CC4)C3)c12` [Example 331, 1-[7-(5-Methyl-7H-pyrrolo[2,3-d]pyrimidin-4-yl)-4,7-diaza-spiro[2.5]oct-4-yl]-2-(4-trifluoromethyl-phenyl)-ethanone], the EC50 in test [1] (setting [9]) is 100 to 500 nM; in test [2] (setting [10]), 100 to 500 nM; in test [3] (setting [11]) it was < 100 nM; in test [4] (setting [12]) it was > 500 nM.
Turning to `N#Cc1ccc(C(=O)N2[C@@H]3CC[C@H]2CN(c2ncnc4[nH]ccc24)C3)cc1` [Example 31, 4-[3-(7H-Pyrrolo[2,3-d]pyrimidin-4-yl)-3,8-diazabicyclo[3.2.1]octane-8-carbonyl]benzonitrile], the EC50 in test [1] (setting [5]) was < 100 nM; in test [2] (setting [6]), < 100 nM; in test [3] (setting [7]) it was 100 to 500 nM; in test [4] (setting [8]), > 500 nM.
In the case of `NS(=O)(=O)c1ccc(/C=C/C(=O)N2CCN(c3ncnc4[nH]ccc34)CC23CC3)cc1` [Example 197, 4-{3-Oxo-3-[7-(7H-pyrrolo[2,3-d]pyrimidin-4-yl)-4,7-diaza-spiro[2.5]oct-4-0]-propenyl}-benzenesulfonamide], the EC50 in test [1] (setting [5]), in test [2] (setting [6]), in test [3] (setting [7]) and in test [4] (setting [8]) was < 100 nM in each case.
With `N#Cc1ccc(C2(C(=O)N3CCN(c4ncnc5[nH]ccc45)CC34CC4)CC2)cc1` [Example 429, 4-{1-[7-(7H-Pyrrolo[2,3-d]pyrimidin-4-yl)-4,7-diaza-spiro[2.5]octane-4-carbonyl]-cyclopropyl}-benzonitrile], the EC50 in test [1] (setting [9]) was < 100 nM; in test [2] (setting [10]), < 100 nM; in test [3] (setting [11]) it was < 100 nM; in test [4] (setting [12]), 100 to 500 nM.
With `COCC(=S)N1CCN(c2ncnc3[nH]ccc23)CC12CC2` [Example 447, 2-Methoxy-1-[7-(7H-pyrrolo[2,3-d]pyrimidin-4-yl)-4,7-diaza-spiro[2.5]oct-4-yl]-ethanethione], the EC50 in test [1] (setting [13]) is < 100 nM; in test [2] (setting [14]), < 100 nM; in test [3] (setting [15]), 100 to 500 nM; in test [4] (setting [16]), 100 to 500 nM.
On to `Cc1cc(C(=O)N2[C@@H]3CC[C@H]2CN(c2ncnc4[nH]ccc24)C3)ccc1S(N)(=O)=O` [Example 392, 2-Methyl-4-[3-(7H-pyrrolo[2,3-d]pyrimidin-4-yl)-3,8-diaza-bicyclo[3.2.1]octane-8-carbonyl]-benzenesulfonamide], for which the EC50 in test [1] (setting [9]) was < 100 nM; in test [2] (setting [10]), < 100 nM; in test [3] (setting [11]), < 100 nM; in test [4] (setting [12]), > 500 nM.
`Nc1nc(N2CCN(C(=O)Cc3ccc(C(F)(F)F)cc3)C3(CC3)C2)c2cc[nH]c2n1` [Example 309, 1-[7-(2-Amino-7H-pyrrolo[2,3-d]pyrimidin-4-yl)-4,7-diaza-spiro[2.5]oct-4-yl]-2-(4-trifluoromethyl-phenyl)-ethanone]: the EC50 is < 100 nM in test [1] (setting [9]), < 100 nM in test [2] (setting [10]), < 100 nM in test [3] (setting [11]) and > 500 nM in test [4] (setting [12]).
As for `Cc1sc(C(=O)N2CCN(c3ncnc4[nH]ccc34)CC23CC3)cc1Br` [Example 208, (4-Bromo-5-methyl-thiophen-2-yl)-[7-(7H-pyrrolo[2,3-d]pyrimidin-4-yl)-4,7-diaza-spiro[2.5]oct-4-yl]-methanone], the half-maximal effective concentration (EC50) in test [1] (setting [9]), in test [2] (setting [10]), in test [3] (setting [11]) and in test [4] (setting [12]) was < 100 nM each time.
Consider `O=C(c1ccc2[nH]c(=O)ccc2c1)N1[C@@H]2CC[C@@H]1CN(c1ncnc3[nH]ccc13)C2` [Example 355, 6-[3-(7H-Pyrrolo[2,3-d]pyrimidin-4-yl)-3,8-diaza-bicyclo[3.2.1]octane-8-carbonyl]-1H-quinolin-2-one], for which the EC50 in test [1] (setting [9]) was < 100 nM; in test [2] (setting [10]) it was < 100 nM; in test [3] (setting [11]) it was 100 to 500 nM; in test [4] (setting [12]) it was > 500 nM.
For the compound `CN(C1CCCCC1)S(=O)(=O)N1CCN(c2ncnc3[nH]ccc23)CC12CC2` [Example 460, 7-(7H-Pyrrolo[2,3-d]pyrimidin-4-yl)-4,7-diaza-spiro[2.5]octane-4-sulfonic acid cyclohexyl-methyl-amide], the EC50 in test [1] (setting [13]) was < 100 nM; in test [2] (setting [14]), < 100 nM; in test [3] (setting [15]) it was 100 to 500 nM; in test [4] (setting [16]), 100 to 500 nM.
For `CN(CCC#N)S(=O)(=O)N1CCN(c2ncnc3[nH]ccc23)CC12CC2` [Example 458, 7-(7H-Pyrrolo[2,3-d]pyrimidin-4-yl)-4,7-diaza-spiro[2.5]octane-4-sulfonic acid (2-cyano-ethyl)-methyl-amide], the EC50 in test [1] (setting [13]), in test [2] (setting [14]), in test [3] (setting [15]) and in test [4] (setting [16]) was < 100 nM each time.
For `N#Cc1cccc(C(=O)N2CCN(c3nc(N)nc4[nH]ccc34)CC23CC3)c1` [Example 304, 3-[7-(2-Amino-7H-pyrrolo[2,3-d]pyrimidin-4-yl)-4,7-diaza-spiro[2.5]octane-4-carbonyl]-benzonitrile], the 50% effective concentration (EC50) was < 100 nM in test [1] (setting [9]), < 100 nM in test [2] (setting [10]), < 100 nM in test [3] (setting [11]) and 100 to 500 nM in test [4] (setting [12]).
For the compound `O=C(c1ccccc1)N1[C@@H]2CC[C@@H]1CN(c1ncnc3[nH]ccc13)C2` [Example 240, Phenyl-[3-(7H-pyrrolo[2,3-d]pyrimidin-4-yl)-3,8-diaza-bicyclo[3.2.1]oct-8-yl]-methanone], the EC50 was < 100 nM in test [1] (setting [9]), < 100 nM in test [2] (setting [10]), 100 to 500 nM in test [3] (setting [11]) and > 500 nM in test [4] (setting [12]).
With `O=C(CCc1ccccc1)N1CCN(c2ncnc3[nH]ccc23)CC12CC2` [Example 153, 3-Phenyl-1-[7-(7H-pyrrolo[2,3-d]pyrimidin-4-yl)-4,7-diaza-spiro[2.5]oct-4-yl]-propan-1-one], the concentration for a half-maximal effect (EC50) in test [1] (setting [5]) was < 100 nM; in test [2] (setting [6]), < 100 nM; in test [3] (setting [7]), 100 to 500 nM; in test [4] (setting [8]), > 500 nM.
